Assay results from patent US9212163B2, “Pesticidal compositions and processes related thereto” (Dow AgroSciences LLC, priority 2012, dated 2015).

Assays:
[1] = tested on: Beet Armyworm (BAW) (Spodoptera exigua); assay: Bioassay on Beet Armyworm (BAW), 128-well diet tray assay; type: in vivo; conditions: for pest or weed control at 50 µg/cm2 / pest or weed control at 50 µg/cm2, 50 µg/cm2: Spodoptera exigua, read-out: BAW Rating; for pest or weed control at 50 µg/cm2: Table 5: Prophetic Compounds Subsequently Exemplified; for pest or weed control at 50 µg/cm2, 50 µg/cm2: 168 h, % mortality, second instar larvae, 50 μg/cm^2 on artificial diet, 25° C., five to seven days, average of eight wells; for BAW Rating: Table 3: Assay Results Part 1
Outline: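 Artificial diet treated with 50 μg/cm^2 compound in 90:10 acetone-water was dried, then one to five second-instar larvae were placed per well, eight wells per compound. Trays were held at 25° C., 14:10 light-dark for five to seven days, and percent mortality averaged across wells.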

[2] = tested on: Cabbage Looper (CL) (Trichoplusia ni); assay: Bioassay on Cabbage Looper (CL), 128-well diet tray assay; type: in vivo; conditions: read-out: CL Rating; for pest or weed control at 50 µg/cm2: Table 5: Prophetic Compounds Subsequently Exemplified; for pest or weed control at 50 µg/cm2, 50 µg/cm2: 168 h, % mortality, second instar larvae, 50 μg/cm^2 on artificial diet, 25° C., five to seven days, average of eight wells
Experimental: Certain molecules disclosed in this document were tested against BAW, CEW and CL using procedures described in the following examples. In the reporting of the results, the “BAW & CEW & CL Rating Table” was used (See Table Section).
Bioassays on CL (Trichoplusia ni)
Bioassays on CL were conducted using a 128-well diet tray assay. One to five second instar CL larvae were placed in each well (3 mL) of the diet tray that had been previously filled with 1 mL of artificial diet to which 50 μg/cm^2 of the test compound (dissolved in 50 μL of 90:10 acetone-water mixture) had been applied (to each of eight wells) and then allowed to dry. Trays were covered with a clear self-adhesive cover, and held at 25° C., 14:10 light-dark for five to seven days. Percent mortality was recorded for the larvae in each well; activity in the eight wells was then averaged. The results are indicated in the table entitled “Table 4: Assay Results Part 2” (See Table Section).

Structure (SMILES): O=C(NC1(C(=O)NCC(F)(F)F)CC1)c1ccc(/C=C/C(c2cc(Cl)cc(Cl)c2)C(F)(F)F)cc1C(F)(F)F (stereo not drawn) [Compound P1050]
- pest or weed control at 50 µg/cm2 [1]: 50 to 100%
- pest or weed control at 50 µg/cm2 [2]: 50 to 100%

Structure (SMILES): N#Cc1cc(C(/C=C/c2ccc(C(=O)NC3(C(=O)NCC(F)(F)F)CC3)c(Br)c2)C(F)(F)F)ccc1F (stereo not drawn) [Compound P513]
- pest or weed control at 50 µg/cm2 [1]: 50 to 100%
- pest or weed control at 50 µg/cm2 [2]: 50 to 100%

Structure (SMILES): O=C(NC1(C(=O)NCC(F)(F)F)CC1)c1ccc(/C=C/C(c2cc(Cl)c(Cl)c(Cl)c2)C(F)(F)F)cc1Cl (stereo not drawn) [Compound F8]
- pest or weed control at 50 µg/cm2, 50 µg/cm2 [1]: 50 to 100%
- pest or weed control at 50 µg/cm2, 50 µg/cm2 [2]: 50 to 100%

Structure (SMILES): O=C(NC1(C(=O)NCC(F)(F)F)CC1)c1ccc(/C=C/C(c2cc(Cl)c(Cl)c(Cl)c2)C(F)(F)F)cc1Br (stereo not drawn) [Compound F3]
- pest or weed control at 50 µg/cm2, 50 µg/cm2 [1]: 50 to 100%
- pest or weed control at 50 µg/cm2, 50 µg/cm2 [2]: 50 to 100%

Structure (SMILES): Cc1cc(C(/C=C/c2ccc(C(=O)NC3(C(=O)NCC(F)(F)F)CC3)c(Br)c2)C(F)(F)F)ccc1F (stereo not drawn) [Compound P693]
- pest or weed control at 50 µg/cm2 [1]: 50 to 100%
- pest or weed control at 50 µg/cm2 [2]: 50 to 100%

Structure (SMILES): O=C(NC1(C(=O)NCC(F)(F)F)CC1)c1ccc(/C=C/C(c2cc(Cl)c(Cl)c(Cl)c2)C(F)(F)C(F)(F)F)cc1C(F)(F)F (stereo not drawn) [Compound P1005]
- pest or weed control at 50 µg/cm2 [1]: 50 to 100%
- pest or weed control at 50 µg/cm2 [2]: 50 to 100%

Structure (SMILES): O=C(NC1CC1(F)F)c1ccc(/C=C/C(c2cc(Cl)c(Cl)c(Cl)c2)C(F)(F)F)cc1Br (stereo not drawn) [Compound P31]
- pest or weed control at 50 µg/cm2 [1]: 50 to 100%
- pest or weed control at 50 µg/cm2 [2]: 50 to 100%

Structure (SMILES): O=C(NC1(C(=O)NCC(F)(F)F)CC1)c1ccc(/C=C/C(c2ccc(Br)c(Br)c2)C(F)(F)F)cc1C(F)(F)F (stereo not drawn) [Compound P425]
- pest or weed control at 50 µg/cm2 [1]: 50 to 100%
- pest or weed control at 50 µg/cm2 [2]: 50 to 100%

Structure (SMILES): O=C(NC1(C(=O)NCC(F)(F)F)CC1)c1ccc(/C=C/C(c2cc(Cl)c(Cl)c(Cl)c2)C(F)(F)C(F)(F)F)cc1Br (stereo not drawn) [Compound P1003]
- pest or weed control at 50 µg/cm2 [1]: 50 to 100%
- pest or weed control at 50 µg/cm2 [2]: 50 to 100%

Structure (SMILES): Cc1cc(/C=C/C(c2cc(Cl)c(Cl)c(Cl)c2)C(F)(F)F)ccc1C(=O)NC1(C(=S)NCC(F)(F)F)CC1 (stereo not drawn) [Compound P1011]
- pest or weed control at 50 µg/cm2 [1]: 50 to 100%
- pest or weed control at 50 µg/cm2 [2]: 50 to 100%

Structure (SMILES): N#CC1(NC(=O)c2ccc(/C=C/C(c3cc(Cl)c(Cl)c(Cl)c3)C(F)(F)F)cc2Br)CC1 (stereo not drawn) [Compound F7, (E)-2-Bromo-N-(1-cyanocyclopropyl)-4-(4,4,4-trifluoro-3-(3,4,5-trichlorophenyl)but-1-en-1-yl)benzamide]
- pest or weed control at 50 µg/cm2, 50 µg/cm2 [1]: 50 to 100%
- pest or weed control at 50 µg/cm2, 50 µg/cm2 [2]: 50 to 100%

Structure (SMILES): O=C(NC1(C(=O)NCC(F)(F)F)CC1)c1ccc(/C=C/C(c2cc(Cl)cc(Cl)c2)C(F)(F)F)cc1Br (stereo not drawn) [Compound P1048]
- pest or weed control at 50 µg/cm2 [1]: 50 to 100%
- pest or weed control at 50 µg/cm2 [2]: 50 to 100%

Structure (SMILES): O=C(NC1(C(=O)NCCF)CC1)c1ccc(/C=C/C(c2cc(Br)cc(Br)c2)C(F)(F)F)cc1C(F)(F)F (stereo not drawn) [Compound P1200]
- pest or weed control at 50 µg/cm2 [1]: 50 to 100%
- pest or weed control at 50 µg/cm2 [2]: 50 to 100%

Structure (SMILES): O=C(NC1(C(=O)NCC(F)(F)F)CCC1)c1ccc(/C=C/C(c2cc(Cl)c(Cl)c(Cl)c2)C(F)(F)F)cc1Br (stereo not drawn) [Compound F5]
- pest or weed control at 50 µg/cm2, 50 µg/cm2 [1]: 50 to 100%
- pest or weed control at 50 µg/cm2, 50 µg/cm2 [2]: 50 to 100%

Structure (SMILES): O=C(NC1(C(=O)NCC(F)(F)F)CC1)c1ccc(/C=C/C(c2cc(Cl)c(Cl)cc2Cl)C(F)(F)F)cc1C(F)(F)F (stereo not drawn) [Compound P110]
- pest or weed control at 50 µg/cm2 [1]: 50 to 100%
- pest or weed control at 50 µg/cm2 [2]: 50 to 100%

Structure (SMILES): O=C(NC1(C(=O)NCC(F)F)CC1)c1ccc(/C=C/C(c2cc(Br)cc(Br)c2)C(F)(F)F)cc1Br (stereo not drawn) [Compound P1193]
- pest or weed control at 50 µg/cm2 [1]: 50 to 100%
- pest or weed control at 50 µg/cm2 [2]: 50 to 100%

Structure (SMILES): O=C(NC1(C(=O)NCCF)CC1)c1ccc(/C=C/C(c2cc(Cl)c(Cl)c(Cl)c2)C(F)(F)F)cc1C(F)(F)F (stereo not drawn) [Compound P1020]
- pest or weed control at 50 µg/cm2 [1]: 50 to 100%
- pest or weed control at 50 µg/cm2 [2]: 50 to 100%

Structure (SMILES): O=C(NC1(C(=S)NCC(F)(F)F)CC1)c1ccc(/C=C/C(c2cc(Cl)c(Cl)c(Cl)c2)C(F)(F)F)cc1C(F)(F)F (stereo not drawn) [Compound F6, (E)-4-(4,4,4-Trifluoro-3-(3,4,5-trichlorophenyl)but-1-enyl)-N-(1-(2,2,2-trifluoroethylcarbamothioyl)cyclopropyl)-2-(trifluoromethyl)benzamide]
- pest or weed control at 50 µg/cm2, 50 µg/cm2 [1]: 50 to 100%
- pest or weed control at 50 µg/cm2, 50 µg/cm2 [2]: 50 to 100%

Structure (SMILES): N#Cc1cc(/C=C/C(c2cc(Cl)c(Cl)c(Cl)c2)C(F)(F)F)ccc1-n1cnc(N)n1 (stereo not drawn) [DC41, (E)-2-(3-Amino-1H-1,2,4-triazol-1-yl)-5-(4,4,4-trifluoro-3-(3,4,5-trichlorophenyl)but-1-en-1-yl)benzonitrile]
- BAW Rating [1]: A (50-100)

Structure (SMILES): CCc1cc(/C=C/C(c2cc(Cl)c(F)c(Cl)c2)C(F)(F)F)ccc1C(=O)NC1CS(=O)(=O)C1 (stereo not drawn) [AC86]
- BAW Rating [1]: A (50-100)

Structure (SMILES): Cc1cc(/C=C/C(c2cc(Cl)cc(Cl)c2)C(F)(F)F)ccc1C(=O)NCc1cnc(Cl)s1 (stereo not drawn) [AC15]
- BAW Rating [1]: A (50-100)

Structure (SMILES): O=C(CNC(=O)c1ccc(/C=C/C(c2cc(Cl)c(Cl)c(Cl)c2)C(F)(F)F)cc1Br)NCC(F)(F)F (stereo not drawn) [AC66]
- BAW Rating [1]: A (50-100)

Structure (SMILES): CSCCC(=O)NCc1ccc(/C=C/C(c2cc(Cl)c(Cl)c(Cl)c2)C(F)(F)F)cc1Cl (stereo not drawn) [CC19]
- BAW Rating [1]: A (50-100)

Structure (SMILES): FC(F)(F)c1cc(C(/C=C/c2ccc(-n3cncn3)cc2)C(F)(F)F)cc(C(F)(F)F)c1 (stereo not drawn) [DC16]
- BAW Rating [1]: A (50-100)

Structure (SMILES): O=C(NC1CSC1)c1ccc(/C=C/C(c2cc(Cl)c(Cl)c(Cl)c2)C(F)(F)F)cc1Cl (stereo not drawn) [AC29]
- BAW Rating [1]: A (50-100)

Structure (SMILES): O=C(CNC(=O)c1ccc(/C=C/C(c2ccc(F)c(Cl)c2)C(F)(F)F)cc1Br)NCC(F)(F)F (stereo not drawn) [AC99]
- BAW Rating [1]: A (50-100)

Structure (SMILES): N#Cc1cc(/C=C\C(c2cc(Cl)c(F)c(Cl)c2)C(F)(F)F)ccc1-n1cncn1 (stereo not drawn) [DC46]
- BAW Rating [1]: A (50-100)

Structure (SMILES): Cc1cc(/C=C/C(c2cc(Cl)cc(Cl)c2)C(F)(F)F)ccc1C(=O)N(C)Cc1ccc(Cl)nc1 (stereo not drawn) [AC117]
- BAW Rating [1]: A (50-100)

Structure (SMILES): O=C(CC(F)(F)F)NCc1ccc(/C=C/C(c2ccc(Cl)c(Cl)c2)C(F)(F)F)cc1Cl (stereo not drawn) [CC18]
- BAW Rating [1]: A (50-100)

Structure (SMILES): O=C(NCc1ccc(Cl)nc1)c1ccc(/C=C/C(c2cc(Cl)c(Cl)c(Cl)c2)C(F)(F)F)cc1Br (stereo not drawn) [AC31]
- BAW Rating [1]: A (50-100)

Structure (SMILES): FC(F)(F)C(/C=C/c1ccc(-n2cncn2)cc1Cl)c1cc(Cl)c(Cl)c(Cl)c1 (stereo not drawn) [DC66]
- BAW Rating [1]: A (50-100)

Structure (SMILES): O=C(CC(F)(F)F)NCc1ccc(/C=C\C(c2cc(Cl)c(Cl)c(Cl)c2)C(F)(F)F)cc1 (stereo not drawn) [CC54, (Z)-3,3,3-Trifluoro-N-(4-(4,4,4-trifluoro-3-(3,4,5-trichlorophenyl)but-1-en-1-yl)benzyl)propanamide]
- BAW Rating [1]: A (50-100)

Structure (SMILES): CS(=O)(=O)CCC(=O)NCc1ccc(/C=C/C(c2cc(Cl)c(Cl)c(Cl)c2)C(F)(F)F)cc1Cl (stereo not drawn) [CC30, (E)-N-(2-Chloro-4-(4,4,4-trifluoro-3-(3,4,5-trichlorophenyl)but-1-en-1-yl)benzyl)-3-(methylsulfonyl)propanamide]
- BAW Rating [1]: A (50-100)

Structure (SMILES): Cc1cc(/C=C/C(c2cc(Cl)cc(Cl)c2)C(F)(F)F)ccc1C(=O)NC(C)(C)c1ccccn1 (stereo not drawn) [AC16]
- BAW Rating [1]: A (50-100)

Structure (SMILES): Cc1cc(/C=C/C(c2cc(Cl)c(F)c(Cl)c2)C(F)(F)F)ccc1C(=O)NCc1ccc(Cl)cn1 (stereo not drawn) [AC53]
- BAW Rating [1]: A (50-100)

Structure (SMILES): Cc1cc(/C=C/C(c2cc(Cl)cc(Cl)c2)C(F)(F)F)ccc1C(=O)NCc1cnccn1 (stereo not drawn) [AC43]
- BAW Rating [1]: A (50-100)
